Here are results for twelve molecules from ChEMBL document CHEMBL1201862, “PubChem BioAssay data set” (2004).

The structures appear in SMILES notation.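 Grown in 96-well plates, cells were treated for 48 hours with each compound at five concentrations. Insufficient inhibition: endpoint recorded as highest concentration tested. GI50: concentration for 50% inhibition of growth.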 Calls of active or inactive are those of the source. No stated cut-off is given here; in the data, active = GI50 up to about 1.1 µM and inactive = higher.

Holding throughout (assay): NCI anticancer screen, dose series, 48 h
The test system of assay [1] is SR.
Assay [2] has as its system HL-60.
The subject of assay [3] is SK-MEL-28.
Assay [4] relates to A498.
In assay [5] the test system is K562.
Assay [6] relates to NCI-H460.
For assay [7], the system named is RPMI-8226.
Assay [8] deals with HOP-92.
Assay [9] relates to SK-MEL-5.
Assay [10] deals with UO-31.
Assay [11] has as its system HCC 2998.
The subject of assay [12] is IGROV-1.
Assay [13] concerns OVCAR-8.
For assay [14], the system named is NCI-H522.
Assay [15] relates to NCI-H23.
Assay [16] deals with HOP-18.
For assay [17], the system named is HCT-15.

With `Oc1ccc2ccccc2c1/N=N/c1ccc(F)cc1`, the GI50 in [1], in assay [2], in [3], in [4], in [5] and in assay [6] was > 100 µM (inactive) each time. In addition, the GI50 is > 100 µM (inactive) in assay [7]; > 100 µM (inactive) in assay [8]; > 100 µM (inactive) in assay [9]; 42.6 µM (inactive) in assay [10]; > 100 µM (inactive) in [11]; > 100 µM (inactive) in assay [12]. The GI50 in assay [13] is > 100 µM (inactive); in assay [14], > 100 µM (inactive); in assay [15], > 100 µM (inactive); in [16], > 100 µM (inactive); in [17] it was over 100 µM.
Consider `C=CCC12CCC(=O)C=C1CCC1(C2)OCCO1` (stereo not drawn), for which the GI50 in [1] is > 100 µM (inactive); in assay [2], 40.4 µM (inactive); in [3] it was > 100 µM (inactive); in assay [4], > 100 µM (inactive); in assay [5] it was 55.2 µM (inactive); in assay [6] it was > 100 µM (inactive). The GI50 in [7], in assay [9], in assay [10], in assay [11], in assay [12] and in [13] was > 100 µM (inactive) each time. Besides, the GI50 in assay [14] is > 100 µM (inactive); in [16] it was > 100 µM (inactive); in [17], over 100 µM.
As to `NN1C(=O)C(CCO)S/C1=N/N=C1/SC(CCO)C(=O)N1N` (stereo not drawn), the GI50 in assay [1], in [2], in assay [3], in assay [4], in assay [5] and in [6] was > 100 µM (inactive) each time. Also, the GI50 in [7], in assay [8], in assay [9], in assay [10], in [11] and in assay [12] was > 100 µM (inactive) throughout. The GI50 is > 100 µM (inactive) in assay [13]; > 100 µM (inactive) in assay [14]; > 100 µM (inactive) in assay [15]; > 100 µM (inactive) in assay [16]; over 100 µM in assay [17].
For the molecule `CCOP(=O)(OCC)OC(C#N)c1ccc(-c2ccccc2)cc1` (stereo not drawn), the GI50 in [1] is 30 µM (inactive); in assay [2], 18.4 µM (inactive); in [3], 31.4 µM (inactive); in assay [4] it was 24.2 µM (inactive); in assay [5] it was 20.3 µM (inactive); in assay [6] it was 20.5 µM (inactive). In addition, the GI50 in [7] was 20.7 µM (inactive); in assay [8], 14.4 µM (inactive); in assay [9] it was 16 µM (inactive); in assay [10] it was 47.3 µM (inactive); in assay [11], 28.5 µM (inactive); in [12], 36.3 µM (inactive). Besides, the GI50 in assay [13] was 19.5 µM (inactive); in [14] it was 14.9 µM (inactive); in assay [15] it was 27 µM (inactive); in [16], 27.7 µM (inactive); in assay [17] it was 18 µM.
For the molecule `CC(=O)OC1CC2(c3ccccc3)C(=O)c3ccccc3N2O1` (stereo not drawn), the GI50 in assay [1], in [2], in [3], in assay [4], in assay [5] and in [7] was > 100 µM (inactive) throughout. For the same molecule, the GI50 in [8] was 65.8 µM (inactive); in assay [9], > 100 µM (inactive); in [10], > 100 µM (inactive); in assay [11], > 100 µM (inactive); in assay [12] it was > 100 µM (inactive); in [13], > 100 µM (inactive). Moreover, the GI50 in assay [14] is > 100 µM (inactive); in [15], > 100 µM (inactive); in assay [16], > 100 µM (inactive); in [17], over 100 µM.
For `COC(=O)C12CCC(CC1=O)C2(C)C` (stereo not drawn), the GI50 in [1], in assay [2], in assay [3], in assay [4], in assay [5] and in assay [6] was > 100 µM (inactive) each time. Moreover, the GI50 in [7], in assay [8], in [9], in [10], in assay [11] and in assay [12] was > 100 µM (inactive) throughout. For the same molecule, the GI50 in [13] is > 100 µM (inactive); in [15], > 100 µM (inactive); in assay [16], > 100 µM (inactive); in assay [17], over 100 µM.
On to `N#Cc1cc([N+](=O)[O-])ccc1NC(=O)C(=O)C(C(=O)/C=C/c1ccccc1)C1OC(=O)c2ccccc21` (stereo not drawn), for which the GI50 in assay [1] is 1.69 µM (inactive); in assay [2] it was > 100 µM (inactive); in assay [3] it was > 100 µM (inactive); in [4], > 100 µM (inactive); in assay [5] it was 13.9 µM (inactive); in [6], > 100 µM (inactive). Moreover, the GI50 in assay [8], in assay [9], in [10], in [11], in assay [12] and in assay [13] was > 100 µM (inactive) in each case. The GI50 in assay [14] was > 100 µM (inactive); in [15], > 100 µM (inactive); in [16] it was > 100 µM (inactive); in assay [17], over 100 µM.
Regarding `C/C(=N/NC(=O)C[N+](C)(C)C)C(CN(C)C)C(=O)Nc1ccccc1` (stereo not drawn), the GI50 in [1], in [2], in assay [3], in assay [4], in [5] and in assay [6] was > 100 µM (inactive) in each case. Besides, the GI50 in assay [9] was > 100 µM (inactive); in assay [10] it was > 100 µM (inactive); in assay [11], 96.8 µM (inactive); in [12], > 100 µM (inactive); in [13], > 100 µM (inactive); in assay [14] it was > 100 µM (inactive). Further, the values for the GI50 in assay [15], in assay [16] and in [17] were > 100 µM (inactive), > 100 µM (inactive) and over 100 µM, respectively.
`COc1cccc2[s+]snc12`: the GI50 in assay [1] was 22.2 µM (inactive); in assay [2], 23.9 µM (inactive); in assay [3], > 100 µM (inactive); in assay [4] it was 95.7 µM (inactive); in assay [5], 25.7 µM (inactive); in assay [6], 68.4 µM (inactive). Further, the GI50 was 24.3 µM (inactive) in assay [9]; 25.1 µM (inactive) in assay [10]; > 100 µM (inactive) in [11]; > 100 µM (inactive) in assay [12]; 26.9 µM (inactive) in [13]; > 10 µM (inactive) in [14]. The figures for the GI50 in assay [15], in assay [16] and in [17] were 57.7 µM (inactive), 41.3 µM (inactive) and 42.4 µM, respectively.
On to `COCCN1C2=CCCCC2=Nc2c1nc(N)[nH]c2=O`, for which the GI50 in assay [1], in assay [2], in assay [3], in [4], in assay [5] and in assay [6] was > 100 µM (inactive) throughout. Also, the GI50 in assay [7], in assay [8], in assay [9], in [10], in assay [11] and in assay [12] was > 100 µM (inactive) each time. Also, the GI50 in assay [13] is > 100 µM (inactive); in [14], > 100 µM (inactive); in assay [15] it was > 100 µM (inactive); in assay [16] it was > 100 µM (inactive); in assay [17] it was over 100 µM.
For the molecule `O=C(O)[C@@H]1OCCOCCO[C@@H](C(=O)O)[C@H](C(=O)O)OCCOCCO[C@H]1C(=O)O`, the GI50 in [1] was 19.1 µM (inactive); in [2], 14.3 µM (inactive); in [3], > 100 µM (inactive); in assay [4] it was > 100 µM (inactive); in assay [5], > 72.3 µM (inactive); in assay [6], > 64.4 µM (inactive). Also, the GI50 is > 38.4 µM (inactive) in assay [7]; > 100 µM (inactive) in assay [8]; > 100 µM (inactive) in [9]; > 100 µM (inactive) in assay [10]; > 100 µM (inactive) in [11]; > 100 µM (inactive) in [12]. Further, the GI50 in assay [13] was > 100 µM (inactive); in assay [14], > 100 µM (inactive); in assay [15], > 100 µM (inactive); in assay [16], > 100 µM (inactive); in [17], over 55.8 µM.
Take `CCC(C)(C)C(=O)O[C@H]1C[C@@H](C)C=C2C=C[C@H](C)[C@H](CC[C@@H]3C[C@@H](O)CC(=O)O3)[C@H]21` [SIMVASTATIN]: the GI50 in [1] was 13.2 µM (inactive); in [2], 3.01 µM (inactive); in assay [3], > 30 µM (inactive); in assay [4] it was 0.902 µM (active); in [5] it was 17.6 µM (inactive); in assay [6] it was 9.08 µM (inactive). Also, the GI50 was 8.2 µM (inactive) in assay [7]; < 0.003 µM (active) in assay [8]; 3.72 µM (inactive) in [10]; 16.5 µM (inactive) in assay [11]; 0.647 µM (active) in assay [12]; 1.37 µM (inactive) in [13]. Further, the GI50 was 0.982 µM (active) in assay [15], > 30 µM (inactive) in assay [16] and 1.12 µM in assay [17].
